Results from publication PMC8868586, “Comparison of Various Solvent Extracts and Major Bioactive Components from Unsalt-Fried and Salt-Fried Rhizomes of Anemarrhena asphodeloides for Antioxidant, Anti-α-Glucosidase, and Anti-Acetylcholinesterase Activities” (Antioxidants, 2022).
Read-outs that look alike come from different tables or passages of the source.

What was measured:
α-glucosidase = biological target: T1, α-glucosidase (Saccharomyces cerevisiae, UniProt P53341); test: α-Glucosidase inhibitory activity assay; format: biochemical
T1 construct: purchased Sigma-Aldrich
Description: The inhibition assay of α-glucosidase was conducted using the procedure previously reported.

[1] = biological target: T2, acetylcholinesterase (AChE) (Homo sapiens, UniProt P22303); test: biochemical; conditions: pure compounds; read-out: AchE Inhibitory Assay IC50 (converted)
T2 construct: purchased Sigma-Aldrich
Description: The inhibition assay of acetylcholinesterase was conducted using the conditions previously reported with slight modifications. Briefly, 0.1 M sodium phosphate buffer (pH 8.0, 140 μL), test compound solution (20 μL), enzyme solution (15 μL of AChE 0.2 units/mL solution), and DTNB (15 mM, 10 μL) were mixed and incubated for 10 min at room temperature. Substrate (10 μL of AchI 15 mM solution) was then added and the reaction was initiated.

[2] = Ferric-reducing antioxidant power (FRAP) assay
Description: The FRAP assay was determined by the reference method with a slight modification. The working solution was mixed with acetate buffer (pH 3.6), ferric chloride solution (20 mM), and TPTZ solution (10 mM TPTZ in 40 mM HCl) in a proportion of 10:1:1, respectively, and freshly prepared before being used. A total of 900 μL of the working solution was warmed to 37 °C and then mixed with 100 μL of the diluted sample, blank or standard, in a microcentrifuge tube. The tubes were vortexed in a dry bath at 37 °C for 40 min. The absorbance was measured at 593 nm. The standard curve was linear between 0 and 100 mM Trolox. Results are expressed in mM TE/g dry weight. Additional dilution was needed if the FRAP value measured was over the linear range of the standard curve.
(§1) ABTS and DPPH assays have been widely utilized to assess the antioxidant activities of natural components. Both assays are mostly connected with the proton radical scavenging or hydrogen donating capacities of the target compounds [29]. Superoxide radical scavenging activity is measured by the PMS/NADH–NBT system. Superoxide anion radicals generated from dissolved oxygen by PMS/NADH coupling reaction reduce NBT. The decrease in absorbance at 560 nm with antioxidants indicates a reduction in superoxide anion radicals in the reaction mixture. The ferric-reducing antioxidant power (FRAP) measures the antioxidant potential of each extract through the reduction of ferric iron (Fe^3+) complex to ferrous iron (Fe^2+) complex by antioxidants present in the samples [31].

[3] = DPPH radical scavenging assay
Description: The DPPH radical scavenging assay was measured by the reference method.
as §1

[4] = Superoxide radical scavenging assay (PMS/NADH-NBT system); conditions: isolated components
Description: Superoxide anion radical (O2^•–) scavenging activity was measured using the previously described method.
as §1

[5] = ABTS radical scavenging assay
Description: ABTS radical scavenging activity of each extract was determined as previously described.
as §1

[6] = Trolox equivalents per gram, isolated components
[7] = pure compounds, read-out: α-Glucosidase IC50 (converted)
[8] = solvent extracts of AA (non-salt-fried) series
[9] = solvent extracts of salt-fried AA series

T1 sequence (P53341 whole entry): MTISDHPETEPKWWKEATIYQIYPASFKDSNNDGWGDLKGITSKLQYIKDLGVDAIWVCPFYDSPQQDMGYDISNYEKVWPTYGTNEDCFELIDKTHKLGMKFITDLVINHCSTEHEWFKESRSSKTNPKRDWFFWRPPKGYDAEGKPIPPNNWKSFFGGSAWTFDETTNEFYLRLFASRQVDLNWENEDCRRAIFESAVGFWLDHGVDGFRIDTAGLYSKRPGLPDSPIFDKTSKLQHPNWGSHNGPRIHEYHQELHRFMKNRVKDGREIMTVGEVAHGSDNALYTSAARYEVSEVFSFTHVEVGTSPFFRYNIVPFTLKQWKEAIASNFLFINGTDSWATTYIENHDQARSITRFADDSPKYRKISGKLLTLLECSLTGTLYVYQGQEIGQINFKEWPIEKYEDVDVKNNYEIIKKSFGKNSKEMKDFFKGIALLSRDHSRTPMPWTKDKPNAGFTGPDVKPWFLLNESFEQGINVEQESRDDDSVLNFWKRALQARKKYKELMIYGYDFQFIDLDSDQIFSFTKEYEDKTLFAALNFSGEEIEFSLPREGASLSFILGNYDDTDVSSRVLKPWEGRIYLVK
T2 sequence (P22303 32-614): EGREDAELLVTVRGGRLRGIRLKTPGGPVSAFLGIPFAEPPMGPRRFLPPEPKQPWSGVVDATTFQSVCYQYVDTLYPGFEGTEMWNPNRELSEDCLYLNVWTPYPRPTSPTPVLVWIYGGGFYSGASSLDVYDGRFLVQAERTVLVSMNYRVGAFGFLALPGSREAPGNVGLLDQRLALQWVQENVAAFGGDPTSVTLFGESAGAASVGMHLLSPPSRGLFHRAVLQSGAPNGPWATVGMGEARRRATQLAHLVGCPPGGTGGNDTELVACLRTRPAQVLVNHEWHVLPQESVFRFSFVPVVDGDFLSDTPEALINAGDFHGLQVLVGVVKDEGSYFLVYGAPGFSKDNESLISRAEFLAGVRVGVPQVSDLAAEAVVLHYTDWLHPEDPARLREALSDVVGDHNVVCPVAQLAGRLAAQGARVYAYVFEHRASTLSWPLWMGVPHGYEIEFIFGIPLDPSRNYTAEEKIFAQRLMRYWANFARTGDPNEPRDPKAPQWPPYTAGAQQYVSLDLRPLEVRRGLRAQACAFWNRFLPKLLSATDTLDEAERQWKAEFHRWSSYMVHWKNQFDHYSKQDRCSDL

| SMILES | IC50 (α-glucosidase) [µM] | IC50 [1] [µM] | FRAP (TE) [2, 6] [mM/g] | DPPH IC50 ([3]; isolated components) [µg/mL] | Superoxide IC50 [4] [µg/mL] | ABTS IC50 ([5]; isolated components) [µg/mL] | potency against α-glucosidase relative to acarbose (α-glucosidase; fold stronger than acarbose) | IC50 (α-glucosidase; [7]) [µM] | FRAP (TE) ([2]; Trolox equivalents per gram of extract, AA (non-salt-fried) series) [mM/g] | FRAP (TE) ([2]; Trolox equivalents per gram of extract, salt-fried AA series) [mM/g] | DPPH IC50 [3, 8] [µg/mL] | DPPH IC50 [3, 9] [µg/mL] | ABTS IC50 [5, 8] [µg/mL] | ABTS IC50 [5, 9] [µg/mL] |
| --- | --- | --- | --- | --- | --- | --- | --- | --- | --- | --- | --- | --- | --- | --- |
| O=c1c2cc(O[C@@H]3O[C@H](CO)[C@@H](O)[C@H](O)[C@H]3O)c(O)cc2oc2cc(O)c([C@@H]3O[C@H](CO)[C@@H](O)[C@H](O)[C@H]3O)c(O)c12 [Neomangiferin, neomangiferin] | > 684 | 121 | 83.1 ± 5.3 | >200 | >200 | 81.9 ± 4.6 | – | – | – | – | – | – | – | – |
| O=c1c2cc(O)c(O)cc2oc2cc(O)c([C@@H]3O[C@H](CO)[C@@H](O)[C@H](O)[C@H]3O)c(O)c12 [Mangiferin, mangiferin] | – | 161 | 9371.4 ± 183.9 | 5.4 ± 0.3 | 53.8 ± 2.4 | 3.7 ± 0.2 | about five-fold | 146 | – | – | – | – | – | – |
| O=c1c2cc(O)c(O)cc2oc2c([C@@H]3O[C@H](CO)[C@@H](O)[C@H](O)[C@H]3O)c(O)cc(O)c12 [Isomangiferin, isomangiferin] | 434 | 227 | 6359.9 ± 176.8 | 16.7 ± 1.1 | 155.3 ± 13.8 | 5.6 ± 0.4 | – | – | – | – | – | – | – | – |
| Cc1cc(C(C)(C)C)c(O)c(C(C)(C)C)c1 [BHT, Butylated hydroxytoluene, reference compound] | – | – | 3963.9 ± 104.0 | 27.2 ± 1.9 | – | 15.4 ± 0.9 | – | – | 4297.0 ± 48.4 | 4216.1 ± 66.5 | 35.5 ± 0.6 | 39.7 ± 1.4 | 20.6 ± 0.2 | 19.6 ± 0.4 |
| C[C@H]1CC[C@@]2(OC1)O[C@H]1C[C@H]3[C@@H]4CC[C@@H]5C[C@@H](O[C@@H]6O[C@H](CO)[C@H](O)[C@H](O)[C@H]6O[C@@H]6O[C@H](CO)[C@@H](O)[C@H](O)[C@H]6O)CC[C@]5(C)[C@H]4CC[C@]3(C)[C@H]1[C@@H]2C [Timosaponin A-III, timosaponin A-III] | – | 179 | 19.5 ± 3.9 | >200 | >200 | >200 | – | 97.9 | – | – | – | – | – | – |
